Data taken from patent US20140010939A1, “Sweetness Enhancers, Sweetener Compositions, Methods of Making the Same and Consumables Containing the Same” (Nutrinova Nutrition Specialties & Food Ingredients GmbH, priority 2011, published 2014).
“Also recorded” adds a separate entry of the source.

Target: T1, heterodimeric hT1R2/hT1R3 sweet taste receptor (Homo sapiens, UniProt Q7RTX0+Q8TE23)
T1 construct: expressed in transfected cells
T1 sequence (Q8TE23 20-839): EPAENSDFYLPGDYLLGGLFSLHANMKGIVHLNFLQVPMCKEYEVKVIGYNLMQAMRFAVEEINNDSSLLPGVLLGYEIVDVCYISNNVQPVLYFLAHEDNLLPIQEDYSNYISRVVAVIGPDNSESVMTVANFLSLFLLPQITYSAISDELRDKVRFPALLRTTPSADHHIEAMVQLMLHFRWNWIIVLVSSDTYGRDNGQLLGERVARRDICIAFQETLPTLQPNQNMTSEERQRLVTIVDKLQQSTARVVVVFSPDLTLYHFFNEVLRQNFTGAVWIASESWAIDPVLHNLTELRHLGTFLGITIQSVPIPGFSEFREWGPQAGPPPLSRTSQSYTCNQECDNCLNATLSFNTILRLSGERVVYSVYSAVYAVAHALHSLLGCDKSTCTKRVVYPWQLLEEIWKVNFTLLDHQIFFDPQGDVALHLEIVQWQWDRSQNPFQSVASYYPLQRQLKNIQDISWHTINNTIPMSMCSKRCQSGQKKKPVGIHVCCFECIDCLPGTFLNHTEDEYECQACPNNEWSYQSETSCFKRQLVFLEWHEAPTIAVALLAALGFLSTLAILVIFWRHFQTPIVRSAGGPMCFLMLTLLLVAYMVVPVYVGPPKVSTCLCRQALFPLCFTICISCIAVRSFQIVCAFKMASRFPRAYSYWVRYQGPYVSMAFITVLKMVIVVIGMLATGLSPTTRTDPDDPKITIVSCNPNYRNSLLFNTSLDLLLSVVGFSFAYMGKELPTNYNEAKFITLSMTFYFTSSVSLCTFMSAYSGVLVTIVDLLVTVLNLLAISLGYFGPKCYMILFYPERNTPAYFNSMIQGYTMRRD
T1 sequence (Q7RTX0 21-852): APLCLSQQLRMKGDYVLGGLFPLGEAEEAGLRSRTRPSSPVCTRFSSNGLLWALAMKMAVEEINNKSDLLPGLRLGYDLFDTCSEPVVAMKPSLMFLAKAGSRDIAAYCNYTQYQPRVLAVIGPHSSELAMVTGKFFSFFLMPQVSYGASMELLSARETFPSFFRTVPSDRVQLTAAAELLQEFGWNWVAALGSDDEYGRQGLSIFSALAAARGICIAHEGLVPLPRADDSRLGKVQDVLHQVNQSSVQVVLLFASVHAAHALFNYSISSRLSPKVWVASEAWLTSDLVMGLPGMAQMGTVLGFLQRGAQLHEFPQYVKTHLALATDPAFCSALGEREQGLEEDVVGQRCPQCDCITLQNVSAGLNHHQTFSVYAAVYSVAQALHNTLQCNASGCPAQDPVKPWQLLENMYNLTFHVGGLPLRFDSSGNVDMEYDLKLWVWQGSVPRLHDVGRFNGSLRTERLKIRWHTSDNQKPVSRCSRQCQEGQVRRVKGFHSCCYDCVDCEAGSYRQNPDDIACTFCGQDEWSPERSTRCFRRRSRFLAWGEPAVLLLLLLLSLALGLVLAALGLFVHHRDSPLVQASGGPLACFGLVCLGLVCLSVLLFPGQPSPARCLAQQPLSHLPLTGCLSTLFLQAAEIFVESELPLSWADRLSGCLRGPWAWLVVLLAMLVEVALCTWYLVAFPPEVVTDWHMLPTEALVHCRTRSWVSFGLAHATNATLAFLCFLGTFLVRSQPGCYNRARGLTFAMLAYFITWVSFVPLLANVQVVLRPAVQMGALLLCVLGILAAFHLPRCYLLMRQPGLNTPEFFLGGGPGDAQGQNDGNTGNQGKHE
Assay: Recombinant human taste receptor T1R2/T1R3 dependent cell based assay (calcium, Fluo4-AM fluorescence)
Experimental: For measurement of human T1R2/T1R3 taste receptor dependent activity a control cell line without sweet receptor based on HEK 293 and a cell line expressing the sweet receptor hT1R2/hT1R3 based on HEK 293, respectively, are seeded into assay plates and labelled with the calcium sensitive fluorescence dye Fluo4-AM in a culture medium. The potential modulators, e.g. the test compound, are added to the control cell line and to the cell line expressing the sweet receptor hT1R2/hT1R3, respectively.
A stable cell line based on HEK293 was termed HEKα15#17 served as control for functional Ga-protein and a stable cell line HEKGα15#17R2R3b#8 C6 served as cell line expressing the sweet receptor hT1R2/hT1R3 based on HEKGα15#17.
The cells were cultured in DMEM/HG and 10% FCS Gold, 4 mM L-Glutamin, 1,3 mg/ml Geneticin (HEKGα15#17) or the same medium additionally containing 6 μg/ml Blasticidin (HEKGα15#17R2R3b#8 C6). The medium for the assay was DMEM/HG (high glucose, 4.5 g/l glucose, Life Technologies) and 10% FCS Gold, 4 mM L-Glutamin (HEKGα15#17) or DMEM/LG (low glucose, 1 g/l glucose; Life Technologies) and 10% FCS Gold (HEKGα15#17R2R3b#8C6), respectively.
In order to evaluate the sweet receptor modulating activity of the compound of formula (Ia), compound of formula (Ia) was added to the cultures in a concentration of 25 μM in a volume of 50 μl. Controls were KH-buffer (Krebs HEPES-buffer: 118 mM NaCl, 4.7 mM KCl, 1.2 mM MgSO4, 1.2 mM KH2PO4, 4.2 mM NaHCO3, 1.3 mM CaCl2, 10 mM Hepes, pH 7.4) either without or with sweetness enhancer.
Further controls for function of G-protein and receptor were isoproterenol (1 μM, Sigma Aldrich), ionomycin (1 μM, Calbiochem) and ATP (1 μM, Applichem). […]
On day 2 the cells were seeded into assay plates at a density of 25,000 cells/well. Assay plates for fluorescence measurement (black clear bottom 96-cavity plates, Greiner Bio-One) were coated with poly-D-lysine. […]

`CC(=O)N(O)CCCCCNC(=O)C(O)(CC(=O)O)CC(=O)NCCCN(O)C(C)=O` (stereo not drawn) [compound of formula (Ia)] was tested, and the “Enhancement of the activity of fructose (sweetness enhancer activity in vitro)” value (25 μM with fructose (20 mM) versus KH buffer/fructose) was “fructose enhancer; also recorded: enhances the activity of fructose”, the “Time response in the cell assay” value (measured over a period of 78 seconds, FIG. 2 / inserted graph) was “selective stimulation of receptor carrying cells” and the “Fluo4-AM fluorescence increase (cellular activation)” value (primary screening, receptor carrying cells only, FIG. 1 sixth bar) was “strong cellular activation”.
